Reference: patent publication EP3782997A1, “FUSED PYRIMIDINE COMPOUNDS AND PHARMACEUTICAL COMPOSITIONS THEREOF FOR THE TREATMENT OF FIBROTIC DISEASES” (Galapagos N.V., priority 2019, dated 2021)

Legend:
hENPP2 = hENPP2 (Homo sapiens, UniProt Q13822); assay: Human ENPP2 (hENPP2) biochemical assay using LPC as substrate; conditions: 150 µM LPC (palmitoyl 16:0), 37°C for 30 min
Summary of the method: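 IC50 came from compound series (top 50 µM, 1/3 steps) incubated 30 min at 37°C with 1 or 3 µg/mL final enzyme and palmitoyl LPC added at 150 µM, pH 8.5 Tris buffer with Ca2+. Choline output measured as quinoneimine dye at 555 nm via coupled oxidase/HRP/TOOS detection.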

C57BL/6 mice = assay: Bleomycin (BLM) induced pulmonary fibrosis model; format: in vivo; conditions: both doses (10 mg/kg and 30 mg/kg, b.i.d. p.o., Day 7 to Day 21); vs. BLM/vehicle control, *p<0.05, Mann-Whitney
Source text: The murine bleomycin induced pulmonary fibrosis model is a widely used standard animal model of pulmonary fibrosis (Walters & Kleeberger 2001). Bleomycin administration results in oxidative stress and acute inflammation with the subsequent onset of pulmonary fibrosis. Epithelial cell injury with reactive hyperplasia, basement membrane damage, clusters of spindle-shaped mesenchymal cells resembling fibroblastic foci, and interstitial as well as intra-alveolar fibrosis are histological characteristics of the bleomycin model similar to those of IPF.
For the purpose of the induction of pulmonary fibrosis 8 weeks old C57BL/6 mice with an average weight of ∼25 g randomly grouped in experimental groups were used. […]
Body weight and clinical signs were monitored throughout the experiment.
The main read-outs in the model were: • Blood for PK analysis • Body weight • Lung weight • Histopathological examination of lung tissue • Ashcroft score on slides stained for collagen with Crossman's trichrome, as well as evaluation of collagen deposition using digital image analysis (CaloPix software, TRIBVN Healthcare, France) on collagen-1A1 stained slides (immunohistochemistry, IHC) (Ashcroft et al. 1988; Hübner et al. 2008; Matsuse et al. 1999). […]

Sprague-Dawley rats = assay: Rat pain model (partial sciatic nerve injury, von Frey and plantar tests); format: in vivo; conditions: 10 mg/kg p.o. bid
Description: The neuropathic pain rat model originally established by Seltzer et al. (Seltzer et al. 1990) is used to evaluate the effect of a test compound against tactile allodynia and contingent thermal hyperalgesia caused by partial sciatic nerve injury (PSNL) induced by sciatic nerve partial ligature.
The test compounds are administered to the treatment groups on a daily basis, starting from post-surgical day 3 (D3), and continued until the end point day on D15.
Gabapentin is used as a positive control. […]
On the test days, pre-dose allodynia was evaluated prior to dosings, and the effects of the administered compounds assessed 2 hours post dosing. […]
In the manual test approach (10 g vF), a pre-calibrated 10 g von Frey hair was used to exert five repeats of filament presentations. […] The results were recorded as percentages of positive reactions within five repeats of filament presentations. […] The actual force application was monitored in real time to ensure its linearity and thus the proper performance of the test in each measurement. The peak force (g), i.e. the lowest force evoking paw withdrawal was recorded, and the absolute paw withdrawal thresholds (PWTs) calculated as medians of triplicate measurements. […]
The contingency of heat hyperalgesia due to PSNL injury was assessed on the test days 2 hours post dosing. […]

IC50 (hENPP2)	Structure (SMILES)	Ashcroft score (C57BL/6 mice)	allodynia (Sprague-Dawley rats)	heat hyperalgesia (Sprague-Dawley rats; plantar test)
0.01 to 100 nM	Cc1cc(C)cc(Nc2ncc3c(n2)CN([C@@H]2CCN(C(=O)c4cc5nn[nH]c5cc4F)[C@H](C)C2)C3)c1 [Cpd 115, [(2R,4R)-4-[2-(3,5-dimethylanilino)-5,7-dihydropyrrolo[3,4-d]pyrimidin-6-yl]-2-methyl-1-piperidyl]-(6-fluoro-1H-benzotriazol-5-yl)methanone]	significantly decrease	statistically significant reduction	statistically significant reduction
0.01 to 100 nM	Cc1cc(Nc2ncc3c(n2)CN([C@H]2CCN(C(=O)c4ccnc(NS(C)(=O)=O)c4)[C@H](C)C2)C3)ccc1C(F)(F)F [compound 216, N-[4-[(2R,4S)-2-methyl-4-[2-[3-methyl-4-(trifluoromethyl)anilino]-5,7-dihydropyrrolo[3,4-d]pyrimidin-6-yl]piperidine-1-carbonyl]-2-pyridyl]methanesulfonamide]			
0.01 to 100 nM	COc1cc(Nc2ncc3c(n2)CN([C@@H]2CCN(C(=O)c4ccnc(NS(C)(=O)=O)c4)[C@H](C)C2)C3)ccc1Cl [compound 217, N-[4-[(2R,4R)-4-[2-(4-chloro-3-methoxy-anilino)-5,7-dihydropyrrolo[3,4-d]pyrimidin-6-yl]-2-methyl-piperidine-1-carbonyl]-2-pyridyl]methanesulfonamide]			
100 to 500 nM	C[C@@H]1C[C@@H](N2Cc3cnc(Nc4cccc(OC5CC5)c4)nc3C2)CCN1C(=O)c1ccnc(NS(C)(=O)=O)c1 [compound 219, N-[4-[(2R,4S)-4-[2-[3-(cyclopropoxy)anilino]-5,7-dihydropyrrolo[3,4-d]pyrimidin-6-yl]-2-methyl-piperidine-1-carbonyl]-2-pyridyl]methanesulfonamide]			

Structure (SMILES)	IC50 (hENPP2)	Ashcroft score (C57BL/6 mice)	allodynia (Sprague-Dawley rats)	heat hyperalgesia (Sprague-Dawley rats; plantar test)
Cc1cc(C)cc(Nc2ncc3c(n2)CN([C@@H]2CCN(C(=O)c4cc(NS(C)(=O)=O)ncc4C)[C@H](C)C2)C3)c1 [compound 218, N-[4-[(2R,4R)-4-[2-(3,5-dimethylanilino)-5,7-dihydropyrrolo[3,4-d]pyrimidin-6-yl]-2-methyl-piperidine-1-carbonyl]-5-methyl-2-pyridyl]methanesulfonamide]	0.01 to 100 nM			
